Among the data in patent publication US5292734A, “Angiotensin II receptor blocking 2,3,6 substituted quinazolinones” (American Cyanamid Company, priority 1993, dated 1994) are IC50 values, retold here.

This assay addresses T1, Angiotensin II Receptor (Bos taurus, UniProt P25104).
T1 construct: The brownish tissue forming the adrenal cortex is scraped off and finely minced with scissors before homogenization; from tissue; host or cells: beef adrenal cortex, microsomal membranes (100,000 x g pellet)
T1 sequence (P25104 1-359): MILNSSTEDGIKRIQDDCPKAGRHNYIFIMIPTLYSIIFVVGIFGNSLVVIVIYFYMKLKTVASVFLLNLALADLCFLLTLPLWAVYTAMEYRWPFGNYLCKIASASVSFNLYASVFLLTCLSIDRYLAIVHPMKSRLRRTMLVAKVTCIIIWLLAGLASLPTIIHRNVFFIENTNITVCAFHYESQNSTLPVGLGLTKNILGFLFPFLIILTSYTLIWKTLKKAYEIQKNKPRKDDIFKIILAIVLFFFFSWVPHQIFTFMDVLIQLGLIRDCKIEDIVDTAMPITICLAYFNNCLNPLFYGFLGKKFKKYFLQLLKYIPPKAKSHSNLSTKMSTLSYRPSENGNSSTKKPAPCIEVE
Put plainly: Receptor binding assay: binding of [^125 I](Sar^1,Ile^8)AngII. To be noted: beef adrenal cortex membranes, 60 min, room temperature. The source says: Beef adrenals are obtained from a local slaughter house (Maxwell-Cohen). [^125 I](Sar^1,Ile^8)AngII, S. A. 2200 Ci/mmole, is purchased from Dupont (NEN®, Boston, Mass.). All unlabeled AngII analogs, Dimethylsulfoxide (DMSO), nucleotides, bovine serum albumin (BSA) are purchased from Sigma Chemical Co., St. Louis, Mo. U.S.A.
Approximately sixteen (16) to twenty (20) beef adrenal glands are processed as follows: fresh adrenal glands received on crushed ice are cleaned of fatty tissues and the tough membranes encapsulating the glands are removed and discarded. […] A 100 ul aliquot is withdrawn and the protein content of the preparation is determined by the Lowry's method (Lowry, O. H., Rosebrough, N. P., Farr, A. L. and Randall, R. J., Protein measurement with Polin phenol reagent. J. Biol. Chem., […], 265-275, 1951). […]
The binding of [^125 I](Sar^1 Ile^8)AngII to microsomal membranes is initiated by the addition of reconstituted membranes (1:10 vols.) in freshly made 50.0 mM Tris.HCl buffer, pH 7.4 containing 0.25% heat inactivated bovine serum albumin (BSA): 80 ul membrane protein (10 to 20 ug/assay) to wells already containing 100 ul of incubation buffer (as described above) and 20 ul [^125 I](Sar^1 Ile^8)AngII (Specific Activity, 2200 Ci/mmole). Non-specific binding is measured in the presence of 1.0 uM unlabeled (Sar^1,Ile^8)AngII, added in 20 ul volume. […]

Consider `CCCCc1nc2ccc(C(C)(O)CC3CCCN3)cc2c(=O)n1Cc1ccc(-c2ccccc2-c2nnn[nH]2)cc1` (stereo not drawn) [Example 79, CIS-2-Butyl-6-[1-hydroxy-1-methyl-2-(2-pyrrolidinyl)ethyl]-3-[[21-(1H-tetrazol-5-yl)[1,1'-biphenyl]-4-yl]methyl]-4(3H)-quinazolinone], for which the IC50 worked out at 3.5 nM.

The term IC50 denotes the concentration that gives 50% inhibition. Low readings indicate greater potency, high ones weaker potency.
